Source: US20250042879A1, “HETEROCYCLIC SUBSTITUTED 1,3,4-THIADIAZOLE AND PYRIDAZINE COMPOUNDS AND METHODS OF USING THE SAME” (Rgenta Therapeutics, Inc., priority 2021, published 2025)

Columns and labels:
Assay type in all cases: cell-based
HTT = experiment: Mini-gene reporter assay-HTT (firefly luciferase, exon inclusion); conditions: for EC50: Homo sapiens, HTT mini-gene firefly luciferase reporter transiently transfected into HEK293 cells; for Emax at 5 µM: HTT Minigene, read-out: % Efficacy at 5 μM
In short: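 HEK293 cells transiently transfected with a pcDNA3.1 mini-gene carrying the alternatively skipped exon with flanking introns and exons fused to firefly luciferase were incubated with compound, in duplicate. Exon inclusion raises luciferase luminescence. EC50 came from Levenberg-Marquardt curve fitting.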

[1] = test system: HTT (exclusion transcript); experiment: RT-qPCR assay to quantify changes in HTT splice isoforms: exclusion transcript; conditions: Homo sapiens, SK-N-SH cells, approximately 96 hours, GAPDH reference
Experimental: (§1) SK—N—SH cells were seeded at 8.5e3 per well in a 96 well plate, in […] (×4 plates, quadruplicate) and treated with the indicated compounds at different concentrations with a final DMSO concentration of 0.5%. Vehicle controls were set up by diluting DMSO 1:200. Cells were returned to a humidified incubator at 37° C., 5% CO2 and treated for approximately 96 hours.
(§2) RNA was isolated from each well using QIAGEN RNeasy mini columns (cat #74004) as per the manufacturer's instructions. Each condition was done in quadruplicate as mentioned above to allow for adequate starting template for downstream analyses. These quadruplicates were pooled (by condition) into single replicates at the cell lysis step. Reverse-transcription was done using the Applied Biosystems High-Capacity cDNA Reverse Transcription Kit (cat #4368814), per the manufacturer's instructions, using approximately half of the harvested RNA. The cDNA was diluted 1:10 in nuclease-free water, and qPCR was done using Applied Biosystems PowerUp SYBR Green Master Mix (cat #A25742) per the manufacturer's instructions. Cycling conditions are primers are detailed below. Each sample was run in technical duplicates.
(§3) Data were analyzed using the 2-DDCT method. GAPDH was used as the reference gene, and vehicle (i.e. DMSO only) treated cells were used as the reference/untreated cell populations. Relative expression of the HTT transcripts was plotted using Graphpad Prism.

[2] = test system: HTT (inclusion transcript); experiment: RT-qPCR assay to quantify changes in HTT splice isoforms: inclusion transcript; conditions: Homo sapiens, SK-N-SH cells, approximately 96 hours, GAPDH reference
Experimental: as §1, §2, §3

| EC50 (HTT) [nM] | EC50 [1] [nM] | EC50 [2] [nM] | Structure (SMILES) | Emax at 5 µM (HTT) [%] |
| --- | --- | --- | --- | --- |
| 50 to 500 | < 50 | 500 to 1000 | Cc1cn2cc(-c3ccc(-c4ccc(C5CN(C)C5)nn4)c(O)c3)cc(F)c2n1 [Compound 12, 5-{8-fluoro-2-methylimidazo[1,2-a]pyridin-6-yl}-2-[6-(1-methylazetidin-3-yl)pyridazin-3-yl]phenol] |  |
| 50 to 500 | < 50 | < 50 | Cc1cn2cc(-c3ccc(-c4ccc(C5CN(C(C)C)C5)nn4)c(O)c3)cc(F)c2n1 [Compound 15, 5-{8-fluoro-2-methylimidazo[1,2-a]pyridin-6-yl}-2-{6-[1-(propan-2-yl)azetidin-3-yl]pyridazin-3-yl}phenol] |  |
| 500 to 1000 | < 50 |  | Cn1cc2cc(-c3ccc(-c4ccc(C5CN(C6CCOCC6)C5)nn4)c(O)c3)ccc2n1 [Compound 22, 5-(2-methyl-2H-indazol-5-yl)-2-{6-[1-(oxan-4-yl)azetidin-3-yl]pyridazin-3-yl}phenol] |  |
| ≥ 1000 | < 50 | > 1000 | CC(C)N1CC(c2ccc(-c3ccc(-c4ccc5nn(C)cc5c4)cc3O)nn2)C1 [Compound 23, 2-(6-(1-isopropylazetidin-3-yl)pyridazin-3-yl)-5-(2-methyl-2H-indazol-5-yl)phenol] |  |
| ≥ 1000 | 50 to 500 | 500 to 1000 | Cc1cn2cc(-c3ccc(-c4ccc(C5CN(C)C5)nn4)c(O)c3)cc(C(F)(F)F)c2n1 [Compound 26, 5-[2-methyl-8-(trifluoromethyl)imidazo[1,2-a]pyridin-6-yl]-2-[6-(1-methylazetidin-3-yl)pyridazin-3-yl]phenol] |  |
| 50 to 500 | < 50 | 500 to 1000 | COc1cc(-c2ccc(-c3ccc(C4CN(C)C4)nn3)c(O)c2)cc2cn(C)nc12 [Compound 28, 5-(7-methoxy-2-methyl-2H-indazol-5-yl)-2-[6-(1-methylazetidin-3-yl)pyridazin-3-yl]phenol] |  |
| ≥ 1000 | 50 to 500 |  | CCN1CC(c2ccc(-c3ccc(-c4cc(C)c5nc(C)cn5c4)cc3O)nn2)C1 [Compound 36, 5-{2,8-dimethylimidazo[1,2-a]pyridin-6-yl}-2-[6-(1-ethylazetidin-3-yl)pyridazin-3-yl]phenol] |  |
| 50 to 500 | < 50 | > 1000 | CCN1CC(c2ccc(-c3ccc(-c4ccc5nc(C)cn5n4)cc3O)nn2)C1 [Compound 38, 2-[6-(1-ethylazetidin-3-yl)pyridazin-3-yl]-5-{2-methylimidazo[1,2-b]pyridazin-6-yl}phenol] |  |
|  |  |  | COc1cc(-c2ccc(-c3ccc(C4CN(CC5CCC6CC6C5)C4)nn3)c(O)c2)cc2cn(C)nc12 (centres unmarked) [Compound 186] | 25 to 75 |
|  |  |  | COc1cc(-c2ccc(-c3ccc(C4CN(C(C)C5CCCCO5)C4)nn3)c(O)c2)cc2cn(C)nc12 (centres unmarked) [Compound 187] | 25 to 75 |
|  |  |  | COc1cc(-c2ccc(-c3ccc(C4CN(C5CC6(COC(C)C6)C5)C4)nn3)c(O)c2)cc2cn(C)nc12 (centres unmarked) [Compound 188] | 25 to 75 |
|  |  |  | COc1cc(-c2ccc(-c3ccc(C4CN(Cc5ccn(C(C)C)n5)C4)nn3)c(O)c2)cc2cn(C)nc12 [Compound 189] | < 25 |
|  |  |  | COc1cc(-c2ccc(-c3ccc(C4CN(CC5C6CCCCC65)C4)nn3)c(O)c2)cc2cn(C)nc12 (centres unmarked) [Compound 190] | 25 to 75 |
|  |  |  | COc1cc(-c2ccc(-c3ccc(C4CN(Cc5cn(C(C)C)cn5)C4)nn3)c(O)c2)cc2cn(C)nc12 [Compound 191] | 25 to 75 |
| ≥ 1000 |  |  | Cc1cc2cc(-c3ccc(-c4ccc(C5CN(C6CCOCC6)C5)nn4)c(O)c3)ccn2n1 [Compound 192, 5-(2-methylpyrazolo[1,5-a]pyridin-5-yl)-2-(6-(1-(tetrahydro-2H-pyran-4-yl)azetidin-3-yl)pyridazin-3-yl)phenol 2,2,2-trifluoroacetate] |  |
